We go through one substance from patent US20120029045A1, “METHOD FOR TREATING PORT WINE STAINS” (SHANGHAI FUDAN-ZHANGJIANG BIO-PHARMACEUTICAL CO., LTD., priority 2010, published 2012).

The series is described as follows: Pharmacokinetics of HMME in human body. It counts as in vivo. The protocol: Porphyrin-based photosensitizing drugs were injected intravenously at a dose of 2.5 and 5.0 mg/kg body weight for 20 minutes with a constant flow rate, and the pharmokinetics measured. Blood samples were taken at 5, 10, 20, 25, 30, 40, 50, 80, 110, 140, 200, 260 and 380 minutes separately to measure the serum concentrations of porphyrin-based photosensitizing drugs.

Setting [1] is: 2.5 mg/kg iv over 20 min at constant flow rate.
Setting [2] is: 5.0 mg/kg iv over 20 min at constant flow rate.

Regarding hematoporphyrin monomethyl ether [HMME], under setting [1], the “AUC0˜n” value is 6342 ± 2824 ng·h/mL, the peak concentration (Cmax) was 17491 ± 7045 ng/mL and the t1/2 turned out to be 1.26 ± 0.33 h. Besides, under setting [2], the “AUC0˜n” value came out at 17531 ± 3467 ng·h/mL, the Cmax amounted to 35724 ± 4539 ng/mL and the t1/2 worked out at 1.31 ± 0.33 h.
